# According to patent US10844058B2, “Valbenazine salts and polymorphs thereof” (Neurocrine Biosciences, Inc., priority 2015, dated 2020):
# Structures can show the parent of a compound that is named as a salt. Where two headings read alike, the source gives them in different places.
# What was measured:
# Type in all cases: physicochemical
# [1] = Gravimetric vapour sorption (GVS); details: for XRPD pattern following the adsorption/desorption analysis: after GVS; for Stability to humidity GVS uptake: 25° C.
# Description: The Gravimetric sorption isotherms were obtained using a Hiden IGASorp moisture sorption analyser, controlled by CFRSorp software. The sample temperature was maintained at 25° C. by a Huber re-circulating water bath. The humidity was controlled by mixing streams of dry and wet nitrogen, with a total flow rate of 250 ml/min. The relative humidity (RH) was measured by a calibrated Vaisala RH probe (dynamic range of 0-95% RH), located near the sample. The weight change, (mass relaxation) of the sample as a function of % RH was constantly monitored by the microbalance (accuracy 0.001 mg). Typically 10-20 mg of sample was placed in a tared mesh stainless steel basket at room temperature. The sample was loaded and unloaded at 40% RH and 25° C. (typical room conditions). The standard isotherm was performed at 25° C. at 10% RH intervals over a 0-90% RH range.
# [2] = Form conversion on heating (VT-XRPD)
# Description: It is not clear whether a form change accompanies this loss of water, as the water is readily taken back up when the sample is returned to ambient RH.
# [3] = Phase equilibration between Form I and IV of Formula I (Example 13)
# Description: The suspensions of Form and IV from the equilibration studies were taken to 25° C.
# [4] = Phase equilibration between Form I, II and IV of Formula I (Example 12); details: slurried 13 days
# Description: About 10 mg of the mixture was then slurried in 200 μl of pre-saturated solvent at the desired temperatures for 13 days. The solids were then quickly filtered and analyzed by XRPD.
# [5] = Thermodynamic aqueous solubility; details: for solubility at 24 h: water, 25 °C, thermodynamic from solid
# Description: The suspension was equilibrated at 25° C. for 24 hours then the pH was measured. The suspension was then filtered through a glass fibre C filter. […] Different volumes of the standard, diluted and undiluted sample solutions were injected.
# [6] = Stability to humidity on storage (form by XRPD)
# [7] = relative humidity from about 0% to about 95%, di(4-methylbenzenesulfonate)
# [8] = relative humidity from about 0% to about 90%
structure (smiles),measurement,setting,value
"COc1cc2c(cc1OC)[C@H]1C[C@@H](OC(=O)[C@@H](N)C(C)C)[C@H](CC(C)C)CN1CC2.Cc1ccc(S(=O)(=O)O)cc1.Cc1ccc(S(=O)(=O)O)cc1 [Form V, (S)-(2R,3R,11bR)-3-isobutyl-9,10-dimethoxy-2,3,4,6,7,11b-hexahydro-1H-pyrido[2,1-a]isoquinolin-2-yl 2-amino-3-methylbutanoate di(4-methylbenzenesulfonate)]",XRPD pattern following the adsorption/desorption analysis,[1]; di(4-methylbenzenesulfonate),substantially unchanged
same,GVS mass lost,[1]; relative humidity decreased between about 20 and 0% RH,1.2%
same,GVS mass increase,[1]; relative humidity from about 10% to about 95%,about 1%
same,Form conversion upon heating,[2]; heating between about 110° C. and about 140° C.,converts to Form VI
"COc1cc2c(cc1OC)[C@H]1C[C@@H](OC(=O)[C@@H](N)C(C)C)[C@H](CC(C)C)CN1CC2.Cc1ccc(S(=O)(=O)O)cc1.Cc1ccc(S(=O)(=O)O)cc1 [Form IV, (S)-(2R,3R,11bR)-3-isobutyl-9,10-dimethoxy-2,3,4,6,7,11b-hexahydro-1H-pyrido[2,1-a]isoquinolin-2-yl 2-amino-3-methylbutanoate di(4-methylbenzenesulfonate)]",Stability with respect to humidity,[1]; GVS,stable with respect to humidity
same,XRPD pattern following the adsorption/desorption analysis,[1]; di(4-methylbenzenesulfonate),substantially unchanged
same,GVS mass lost,[1]; relative humidity decreased between about 40 and 0% RH,1.8%
same,GVS mass increase,[1]; [7],about 3.4%
same,GVS mass increase,[1]; relative humidity from about 40% to about 95%,about 1.6%
same,Form conversion in suspension,"[3]; 25° C., overnight stirring",did not convert
same,Form conversion in suspension,[3]; heated to 30° C. for 2 days,conversion to Form I was then complete
same,Form conversion upon re-slurry,[3]; re-slurry at room temperature in acetonitrile,converts to Form I
same,Form conversion upon heating,[2]; heating at about 230° C.,converts to Form I
"COc1cc2c(cc1OC)C1CC(OC(=O)C(N)C(C)C)C(CC(C)C)CN1CC2.Cc1ccc(S(=O)(=O)O)cc1.Cc1ccc(S(=O)(=O)O)cc1 (stereo not drawn) [Form I, II, and IV]",Form found by XRPD after equilibration,"[4]; Acetonitrile/2% water, 25° C.",Form I
same,Form found by XRPD after equilibration,"[4]; Acetonitrile/2% water, 50° C.",Form I
same,Form found by XRPD after equilibration,"[4]; Acetonitrile/5% water, 5° C.",Form IV
same,Form found by XRPD after equilibration,"[4]; Acetonitrile/5% water, 25° C.",Form I
same,Form found by XRPD after equilibration,"[4]; Acetonitrile/5% water, 50° C.",Form I
same,Form found by XRPD after equilibration,"[4]; Acetonitrile/10% water, 5° C.",Form IV
same,Form found by XRPD after equilibration,"[4]; Acetonitrile/10% water, 25° C.",Form I
same,Form found by XRPD after equilibration,"[4]; Acetonitrile/10% water, 50° C.",Form I
same,Form found by XRPD after equilibration,"[4]; Acetonitrile, 5° C.",Form I
same,Form found by XRPD after equilibration,"[4]; Acetonitrile, 25° C.",Form I
same,Form found by XRPD after equilibration,"[4]; Acetonitrile, 50° C.",Form I
"COc1cc2c(cc1OC)[C@H]1C[C@@H](OC(=O)[C@@H](N)C(C)C)[C@H](CC(C)C)CN1CC2.Cc1ccc(S(=O)(=O)O)cc1.Cc1ccc(S(=O)(=O)O)cc1 [Form VI, (S)-(2R,3R,11bR)-3-isobutyl-9,10-dimethoxy-2,3,4,6,7,11b-hexahydro-1H-pyrido[2,1-a]isoquinolin-2-yl 2-amino-3-methylbutanoate di(4-methylbenzenesulfonate)]",Form conversion upon exposure to gravimetric vapour sorption analysis,[1],converts to Form V
same,XRPD pattern following the adsorption/desorption analysis,[1]; di(4-methylbenzenesulfonate),substantially changed
same,GVS mass lost,[1]; relative humidity decreased between about 15% and 0% RH,2.0%
same,GVS mass lost,[1]; relative humidity decreased between about 90% and 15% RH,1.2%
same,GVS mass increase,[1]; [8],about 3.1%
same,GVS mass increase,[1]; relative humidity from about 40% to about 80%,about 0.5%
same,GVS mass increase,[1]; relative humidity from about 80% to about 90%,about 3.1%
"COc1cc2c(cc1OC)[C@H]1C[C@@H](OC(=O)[C@@H](N)C(C)C)[C@H](CC(C)C)CN1CC2 [Form II of Formula II, (S)-(2R,3R,11bR)-3-isobutyl-9,10-dimethoxy-2,3,4,6,7,11b-hexahydro-1H-pyrido[2,1-a]isoquinolin-2-yl 2-amino-3-methylbutanoate dihydrochloride]",GVS mass loss,[1]; RH lowered to 0%,ca. 12%
same,Form conversion on heating (VT-XRPD),[2]; heating,no conversion to Form I on heating
same,Temperature at which the material becomes amorphous (VT-XRPD),[2]; no subsequent crystallization upon cooling,above 160 °C
same,Aqueous solubility,"[5]; at pH 4.1, dihydrochloride",> 67 mg/mL free form equivalent
Br [hydrobromide],Stability to humidity GVS uptake,[1],>3.9%
"COc1cc2c(cc1OC)[C@H]1C[C@@H](OC(=O)[C@@H](N)C(C)C)[C@H](CC(C)C)CN1CC2.Cc1ccc(S(=O)(=O)O)cc1.Cc1ccc(S(=O)(=O)O)cc1 [Form II, (S)-(2R,3R,11bR)-3-isobutyl-9,10-dimethoxy-2,3,4,6,7,11b-hexahydro-1H-pyrido[2,1-a]isoquinolin-2-yl 2-amino-3-methylbutanoate di(4-methylbenzenesulfonate)]",Hygroscopicity,[1]; GVS,substantially non-hygroscopic
same,Stability with respect to humidity,[1]; GVS,stable with respect to humidity
same,XRPD pattern following the adsorption/desorption analysis,[1]; di(4-methylbenzenesulfonate),substantially unchanged
same,GVS mass increase,[1]; [7],about 0.5%
same,solubility at 24 h,"[5]; pH 5.1, water, at pH 5.1, read-out: aqueous solubility",~18.5 mg/mL
COc1cc2c(cc1OC)C1CC(OC(=O)C(N)C(C)C)C(CC(C)C)CN1CC2.O=C(O)C(=O)O.O=C(O)C(=O)O (stereo not drawn) [oxalate],Stability to humidity GVS uptake,[1],0.8%
same,Stability to humidity 25° C./92% RH,[6]; 25° C./92% RH,unchanged
same,Stability to humidity 40° C./75% RH,[6]; 40° C./75% RH,unchanged
"COc1cc2c(cc1OC)[C@H]1C[C@@H](OC(=O)[C@@H](N)C(C)C)[C@H](CC(C)C)CN1CC2 [Form I of Formula II, (S)-(2R,3R,11bR)-3-isobutyl-9,10-dimethoxy-2,3,4,6,7,11b-hexahydro-1H-pyrido[2,1-a]isoquinolin-2-yl 2-amino-3-methylbutanoate dihydrochloride]",Stability to humidity GVS uptake,[1],15.2%
same,XRPD pattern following the adsorption/desorption analysis,[1]; dihydrochloride,substantially changed
same,GVS mass increase,[1]; [8],about 14%
same,Form after storage,[6]; 25° C./92% RH for seven days,change of form
same,Form after storage,[6]; 40° C./75% RH for seven days,change of form
same,solubility at 24 h,"[5]; pH 4.1, water, at pH 4.1, read-out: Aqueous solubility",> 90 mg/mL
same,solubility at 24 h,"[5]; 25° C., 24 hours, at the pH of the next column, read-out: Aqueous solubility mg/mL free form",> 90 mg/mL
